Laboratory results taken from PubChem BioAssay (NCI).
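Dose response: 5 concentrations. Exposure: 48 h. Format: 96-well plates. Endpoint: linear interpolation; highest concentration if not reached. The concentration for full growth arrest is given as TGI.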

What was measured:
Assay in all cases: NCI anticancer screen, dose series, 48 h
SNB-75 CNS = tested on: SNB-75 CNS
KM20L2 colon = tested on: KM20L2 colon
NCI-H522 lung = tested on: NCI-H522 lung
RPMI-8226 leukemia = tested on: RPMI-8226 leukemia
HOP-62 NSCLC = tested on: HOP-62 NSCLC
RXF-631 renal = tested on: RXF-631 renal
SK-MEL-2 melanoma = tested on: SK-MEL-2 melanoma
NCI-H460 lung = tested on: NCI-H460 lung
DMS 114 small cell lung = tested on: DMS 114 small cell lung
SF-539 CNS = tested on: SF-539 CNS
HCC-2998 colon = tested on: HCC-2998 colon
M14 melanoma = tested on: M14 melanoma
OVCAR-5 ovarian = tested on: OVCAR-5 ovarian
K-562 leukemia = tested on: K-562 leukemia
SF-295 CNS = tested on: SF-295 CNS
CCRF-CEM leukemia = tested on: CCRF-CEM leukemia
SR leukemia = tested on: SR leukemia
TK-10 renal = tested on: TK-10 renal
A498 renal = tested on: A498 renal
HOP-92 NSCLC = tested on: HOP-92 NSCLC
M19-MEL melanoma = tested on: M19-MEL melanoma
MALME-3M melanoma = tested on: MALME-3M melanoma
U251 CNS = tested on: U251 CNS
OVCAR-8 ovarian = tested on: OVCAR-8 ovarian
EKVX NSCLC = tested on: EKVX NSCLC
DMS 273 small cell lung = tested on: DMS 273 small cell lung
SW-620 colon = tested on: SW-620 colon
DLD-1 colon = tested on: DLD-1 colon
UACC-257 melanoma = tested on: UACC-257 melanoma
SF-268 CNS = tested on: SF-268 CNS
IGROV1 ovarian = tested on: IGROV1 ovarian
LXFL 529 NSCLC = tested on: LXFL 529 NSCLC
HCT-116 colon = tested on: HCT-116 colon
SNB-19 CNS = tested on: SNB-19 CNS
SK-MEL-5 melanoma = tested on: SK-MEL-5 melanoma
OVCAR-4 ovarian = tested on: OVCAR-4 ovarian
LOX IMVI melanoma = tested on: LOX IMVI melanoma
UO-31 renal = tested on: UO-31 renal
SN12C renal = tested on: SN12C renal
HT29 colon = tested on: HT29 colon
UACC-62 melanoma = tested on: UACC-62 melanoma
XF 498 CNS = tested on: XF 498 CNS
NCI-H226 lung = tested on: NCI-H226 lung
ACHN renal = tested on: ACHN renal
KM12 colon = tested on: KM12 colon
HL-60(TB) leukemia = tested on: HL-60(TB) leukemia
A549 NSCLC = tested on: A549 NSCLC
CAKI-1 renal = tested on: CAKI-1 renal
MOLT-4 leukemia = tested on: MOLT-4 leukemia
786-0 renal = tested on: 786-0 renal
RXF 393 renal = tested on: RXF 393 renal
SK-MEL-28 melanoma = tested on: SK-MEL-28 melanoma
NCI-H23 lung = tested on: NCI-H23 lung
OVCAR-3 ovarian = tested on: OVCAR-3 ovarian
HCT-15 colon = tested on: HCT-15 colon
SK-OV-3 ovarian = tested on: SK-OV-3 ovarian
HOP-18 NSCLC = tested on: HOP-18 NSCLC
SNB-78 CNS = tested on: SNB-78 CNS
COLO 205 colon = tested on: COLO 205 colon

Structure (SMILES): CC(=O)OCC1OC(n2cnc3c(I)nc(I)nc32)C(OC(C)=O)C1OC(C)=O (centres undefined)
- TGI (SNB-75 CNS): 30.2 µM
- TGI (KM20L2 colon): 32.7 µM
- TGI (NCI-H522 lung): 3.53 µM
- TGI (RPMI-8226 leukemia): 31.1 µM
- TGI (HOP-62 NSCLC): 34.4 µM
- TGI (RXF-631 renal): 34.9 µM
- TGI (SK-MEL-2 melanoma): 33 µM
- TGI (NCI-H460 lung): 35.9 µM
- TGI (DMS 114 small cell lung): 13.1 µM
- TGI (SF-539 CNS): 29.6 µM
- TGI (HCC-2998 colon): 16.9 µM
- TGI (M14 melanoma): 31.6 µM
- TGI (OVCAR-5 ovarian): 35.1 µM
- TGI (K-562 leukemia): 13.5 µM
- TGI (SF-295 CNS): 35.1 µM
- TGI (CCRF-CEM leukemia): 27.4 µM
- TGI (SR leukemia): 11.8 µM
- TGI (TK-10 renal): 33.6 µM
- TGI (A498 renal): 38.3 µM
- TGI (HOP-92 NSCLC): 9.16 µM
- TGI (M19-MEL melanoma): 12.2 µM
- TGI (MALME-3M melanoma): 33.5 µM
- TGI (U251 CNS): 22.9 µM
- TGI (OVCAR-8 ovarian): 24.1 µM
- TGI (EKVX NSCLC): 33.3 µM
- TGI (DMS 273 small cell lung): 20.2 µM
- TGI (SW-620 colon): 28.4 µM
- TGI (DLD-1 colon): 24.2 µM
- TGI (UACC-257 melanoma): 27.5 µM
- TGI (SF-268 CNS): 28.5 µM
- TGI (IGROV1 ovarian): 19.8 µM
- TGI (LXFL 529 NSCLC): 26.1 µM
- TGI (HCT-116 colon): 16.7 µM
- TGI (SNB-19 CNS): 25 µM
- TGI (SK-MEL-5 melanoma): 26.1 µM
- TGI (OVCAR-4 ovarian): 17.4 µM
- TGI (LOX IMVI melanoma): 29.4 µM
- TGI (UO-31 renal): 31.5 µM
- TGI (SN12C renal): 26.7 µM
- TGI (HT29 colon): 19.7 µM
- TGI (UACC-62 melanoma): 27.2 µM
- TGI (XF 498 CNS): 35.9 µM
- TGI (NCI-H226 lung): 35.5 µM
- TGI (ACHN renal): 21.8 µM
- TGI (KM12 colon): 15.6 µM
- TGI (HL-60(TB) leukemia): 5.52 µM
- TGI (A549 NSCLC): 32.7 µM
- TGI (CAKI-1 renal): 4.09 µM
- TGI (MOLT-4 leukemia): 24.8 µM
- TGI (786-0 renal): 27.8 µM
- TGI (RXF 393 renal): 38.3 µM
- TGI (SK-MEL-28 melanoma): 28.5 µM
- TGI (NCI-H23 lung): 16.7 µM
- TGI (OVCAR-3 ovarian): 20.1 µM
- TGI (HCT-15 colon): 15.6 µM

Structure (SMILES): COC1C2c3ccccc3C(C#N)(Cc3ccc4c(c32)OCO4)N1C(=O)c1ccccc1 (centres undefined)
- TGI (SNB-75 CNS): > 100 µM
- TGI (KM20L2 colon): > 100 µM
- TGI (NCI-H522 lung): > 100 µM
- TGI (RPMI-8226 leukemia): > 100 µM
- TGI (SK-OV-3 ovarian): > 100 µM
- TGI (HOP-62 NSCLC): > 100 µM
- TGI (RXF-631 renal): > 100 µM
- TGI (SK-MEL-2 melanoma): > 100 µM
- TGI (NCI-H460 lung): > 100 µM
- TGI (DMS 114 small cell lung): > 100 µM
- TGI (SF-539 CNS): > 100 µM
- TGI (HCC-2998 colon): > 100 µM
- TGI (M14 melanoma): > 100 µM
- TGI (OVCAR-5 ovarian): > 100 µM
- TGI (K-562 leukemia): > 100 µM
- TGI (HOP-18 NSCLC): > 100 µM
- TGI (SF-295 CNS): > 100 µM
- TGI (CCRF-CEM leukemia): > 100 µM
- TGI (SR leukemia): > 100 µM
- TGI (TK-10 renal): > 100 µM
- TGI (HOP-92 NSCLC): > 100 µM
- TGI (MALME-3M melanoma): > 100 µM
- TGI (U251 CNS): > 100 µM
- TGI (OVCAR-8 ovarian): > 100 µM
- TGI (EKVX NSCLC): > 100 µM
- TGI (DMS 273 small cell lung): 98.3 µM
- TGI (SW-620 colon): > 100 µM
- TGI (DLD-1 colon): > 100 µM
- TGI (UACC-257 melanoma): > 100 µM
- TGI (SF-268 CNS): > 100 µM
- TGI (IGROV1 ovarian): > 100 µM
- TGI (LXFL 529 NSCLC): > 100 µM
- TGI (HCT-116 colon): > 100 µM
- TGI (SNB-19 CNS): > 100 µM
- TGI (SK-MEL-5 melanoma): 31.5 µM
- TGI (LOX IMVI melanoma): > 100 µM
- TGI (UO-31 renal): > 100 µM
- TGI (SN12C renal): > 100 µM
- TGI (HT29 colon): > 100 µM
- TGI (UACC-62 melanoma): > 100 µM
- TGI (XF 498 CNS): 98.1 µM
- TGI (NCI-H226 lung): 85.9 µM
- TGI (ACHN renal): > 100 µM
- TGI (KM12 colon): > 100 µM
- TGI (SNB-78 CNS): > 100 µM
- TGI (HL-60(TB) leukemia): > 100 µM
- TGI (MOLT-4 leukemia): > 100 µM
- TGI (786-0 renal): > 100 µM
- TGI (RXF 393 renal): > 100 µM
- TGI (SK-MEL-28 melanoma): > 100 µM
- TGI (NCI-H23 lung): > 100 µM
- TGI (OVCAR-3 ovarian): > 100 µM
- TGI (HCT-15 colon): > 100 µM
- TGI (COLO 205 colon): 82.6 µM
